Numbered stars: 1 amine (or outer) side, 2 acyl side, 3 side chain; on linkers, the order of the positions; unused ones are H or OH. Square brackets hold non-standard residues; d marks the D form. Side chains are listed from the residue outwards. Peptide text beside a SMILES is read from it. * marks the point of attachment. Ala(1H-tetrazol-5-yl) = N[C@@H](Cc1nnn[nH]1)C(=O)O; C20 diacid = O=C(O)CCCCCCCCCCCCCCCCCCC(=O)*; γGlu = O=C(O)[C@H](CCC(=O)[*:2])N[*:1]; αMeF = C[C@](N)(Cc1ccccc1)C(=O)O; αMeL = CC(C)C[C@](C)(N)C(=O)O; AEEA = NCCOCCOCC(=O)O; Aib = CC(C)(N)C(=O)O
Columns and labels:
human Gcg receptor = molecular target: T1, human Gcg receptor (Homo sapiens, UniProt P47871); experiment: [125I]-Glucagon binding (SPA), human Gcg receptor; conditions: read-out: hGLcgR Ki, nM (SEM, n)
T1 construct: expressed in transfected cells; crude membranes
T1 sequence (P47871 26-477): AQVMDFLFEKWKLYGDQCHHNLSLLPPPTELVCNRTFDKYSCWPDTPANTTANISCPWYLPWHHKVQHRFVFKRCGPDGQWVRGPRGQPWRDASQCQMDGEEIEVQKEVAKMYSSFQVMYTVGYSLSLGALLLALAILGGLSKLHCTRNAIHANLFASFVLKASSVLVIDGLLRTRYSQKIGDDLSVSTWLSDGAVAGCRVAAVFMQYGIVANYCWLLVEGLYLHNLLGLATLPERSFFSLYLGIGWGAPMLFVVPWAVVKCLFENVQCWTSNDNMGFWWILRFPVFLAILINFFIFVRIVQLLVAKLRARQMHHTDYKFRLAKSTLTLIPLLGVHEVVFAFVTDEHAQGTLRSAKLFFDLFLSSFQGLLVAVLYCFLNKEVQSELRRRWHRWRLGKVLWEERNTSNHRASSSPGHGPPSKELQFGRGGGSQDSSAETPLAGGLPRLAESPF
Method in brief: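 Cell pellets were lysed in hypotonic Tris buffer, pH 7.5, homogenized, and spun at low then high speed to give crude membranes. Ki was derived from the fitted IC50.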

human GIP receptor = molecular target: T2, human GIP receptor (Homo sapiens, UniProt P48546); experiment: [125I]-GIP binding (SPA), human GIP receptor; conditions: read-out: hGIPR Ki, nM (SEM, n)
T2 construct: expressed in transfected cells; crude membranes
T2 sequence (P48546 22-466): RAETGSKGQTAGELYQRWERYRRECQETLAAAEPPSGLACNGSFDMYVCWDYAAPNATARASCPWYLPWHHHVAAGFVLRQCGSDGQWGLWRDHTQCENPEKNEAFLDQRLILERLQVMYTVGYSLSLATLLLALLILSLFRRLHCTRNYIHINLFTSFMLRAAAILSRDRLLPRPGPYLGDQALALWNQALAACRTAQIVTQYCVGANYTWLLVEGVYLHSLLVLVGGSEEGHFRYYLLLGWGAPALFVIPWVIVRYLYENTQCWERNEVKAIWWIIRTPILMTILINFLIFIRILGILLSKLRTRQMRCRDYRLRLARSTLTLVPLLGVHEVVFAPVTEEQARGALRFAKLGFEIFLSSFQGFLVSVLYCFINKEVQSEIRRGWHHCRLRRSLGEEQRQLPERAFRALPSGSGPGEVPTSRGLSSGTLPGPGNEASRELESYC

[1] = molecular target: human GLP-1 receptor (GLP-1R) (Homo sapiens, UniProt P43220); experiment: cAMP pharmacological functional assay in presence of casein, hGLP-1R; format: cell-based; conditions: HEK293 cells expressing hGLP-1R, 0.1% Casein, geometric mean; read-out: hGLP1R cAMP Rel EC50 nM (SEM, n)
Chain of human GLP-1 receptor (GLP-1R) (P43220 24-463): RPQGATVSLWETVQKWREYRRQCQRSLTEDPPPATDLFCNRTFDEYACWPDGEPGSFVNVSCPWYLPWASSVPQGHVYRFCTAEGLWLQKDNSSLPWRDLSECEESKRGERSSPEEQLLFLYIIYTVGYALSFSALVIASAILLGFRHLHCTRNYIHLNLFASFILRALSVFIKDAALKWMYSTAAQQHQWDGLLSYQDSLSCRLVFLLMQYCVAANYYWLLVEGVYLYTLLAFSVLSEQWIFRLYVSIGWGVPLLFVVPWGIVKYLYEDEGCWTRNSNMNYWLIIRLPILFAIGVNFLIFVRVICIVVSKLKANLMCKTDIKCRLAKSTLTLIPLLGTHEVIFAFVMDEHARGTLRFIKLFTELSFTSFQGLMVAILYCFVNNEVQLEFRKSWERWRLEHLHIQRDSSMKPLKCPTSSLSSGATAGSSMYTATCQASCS

[2] = molecular target: T3, gastric inhibitory peptide receptor (GIPR) (Homo sapiens, UniProt P48546); experiment: cAMP pharmacological functional assay in presence of casein, hGIPR; format: cell-based; conditions: HEK293 cells expressing hGIPR, 0.1% Casein, geometric mean; read-out: hGIPR cAMP Rel EC50 nM (SEM, n)
T3 sequence (P48546 22-466): T2 sequence (P48546 22-466)

human GLP-1R = human GLP-1R (Homo sapiens, UniProt P43220); experiment: [125I]-GLP-1 binding (SPA), human GLP-1 receptor; parameters: expressed in transfected cells; crude membranes; conditions: read-out: hGLP1R Ki, (nM) (SEM, n)
Chain of human GLP-1R (P43220 24-463): as above
Method in brief: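 Ki values are geometric means with SEM over independent replicates on different days, derived from IC50s fitted by four-parameter nonlinear regression. The assay used crude cell membranes in HEPES buffer, pH 7.4, containing CaCl2, MgCl2, bacitracin and TWEEN-20.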

Row | Compound | Ki (human Gcg receptor) | Ki (human GIP receptor) | EC50 [1] | EC50 [2] | Ki (human GLP-1R)
1 | CC[C@H](C)[C@H](NC(=O)[C@H](CC(C)C)NC(=O)[C@H](Cc1ccc(O)cc1)NC(=O)[C@H](CCC(=O)O)NC(=O)[C@@H](NC(=O)[C@H](Cc1ccccc1)NC(=O)[C@H](C)NC(=O)C(C)(C)NC(=O)[C@H](CCC(N)=O)NC(=O)[C@H](C)NC(=O)[C@H](CCCCNC(=O)COCCOCCNC(=O)COCCOCCNC(=O)CC[C@H](NC(=O)CCCCCCCCCCCCCCCCCCC(=O)O)C(=O)O)NC(=O)[C@H](CCC(=O)O)NC(=O)[C@H](CC(=O)O)NC(=O)[C@H](CC(C)C)NC(=O)[C@](C)(CC(C)C)NC(=O)[C@@H](NC(=O)[C@H](CO)NC(=O)[C@H](Cc1ccc(O)cc1)NC(=O)[C@H](CC(=O)O)NC(=O)[C@H](CO)NC(=O)[C@@H](NC(=O)[C@](C)(Cc1ccccc1)NC(=O)[C@@H](NC(=O)CNC(=O)[C@H](Cc1nn[nH]n1)NC(=O)C(C)(C)NC(=O)[C@@H](N)Cc1ccc(O)cc1)[C@@H](C)O)[C@@H](C)O)[C@@H](C)CC)[C@@H](C)CC)C(=O)N[C@@H](CCC(=O)O)C(=O)NCC(=O)NCC(=O)N1CCC[C@H]1C(=O)N[C@@H](CO)C(=O)N[C@@H](CO)C(=O)NCC(=O)N[C@@H](C)C(=O)N1CCC[C@H]1C(=O)N1CCC[C@H]1C(=O)N1CCC[C@H]1C(=O)N[C@@H](CO)C(N)=O [Example 120] (H-Y[Aib][Ala(1H-tetrazol-5-yl)]GT[αMeF]TSDYSI[αMeL]LDEK([AEEA-AEEA-γGlu-C20 diacid])AQ[Aib]AFIEYLIEGGPSSGAPPPS-NH2; N-terminus assumed) | 93.6 nM | 0.11 nM | 0.201 nM | 0.122 nM | 11.7 nM
2 | CC[C@H](C)[C@H](NC(=O)[C@H](CC(C)C)NC(=O)[C@H](Cc1ccc(O)cc1)NC(=O)[C@H](CCC(=O)O)NC(=O)[C@@H](NC(=O)[C@H](Cc1ccccc1)NC(=O)[C@H](C)NC(=O)[C@H](CCC(N)=O)NC(=O)[C@H](CCC(N)=O)NC(=O)[C@H](C)NC(=O)[C@H](CCCCNC(=O)COCCOCCNC(=O)COCCOCCNC(=O)CC[C@H](NC(=O)CCCCCCCCCCCCCCCCCCC(=O)O)C(=O)O)NC(=O)[C@H](CCC(=O)O)NC(=O)[C@H](CC(=O)O)NC(=O)[C@H](CC(C)C)NC(=O)[C@](C)(CC(C)C)NC(=O)[C@@H](NC(=O)[C@H](CO)NC(=O)[C@H](Cc1ccc(O)cc1)NC(=O)[C@H](CC(=O)O)NC(=O)[C@H](CO)NC(=O)[C@@H](NC(=O)[C@](C)(Cc1ccccc1)NC(=O)[C@@H](NC(=O)CNC(=O)[C@H](CCC(=O)O)NC(=O)C(C)(C)NC(=O)[C@@H](N)Cc1ccc(O)cc1)[C@@H](C)O)[C@@H](C)O)[C@@H](C)CC)[C@@H](C)CC)C(=O)N[C@@H](CCC(=O)O)C(=O)NCC(=O)NCC(=O)N1CCC[C@H]1C(=O)N[C@@H](CO)C(=O)N[C@@H](CO)C(=O)NCC(=O)N[C@@H](C)C(=O)N1CCC[C@H]1C(=O)N1CCC[C@H]1C(=O)N1CCC[C@H]1C(=O)N[C@@H](CO)C(N)=O [Example 121] (H-Y[Aib]EGT[αMeF]TSDYSI[αMeL]LDEK([AEEA-AEEA-γGlu-C20 diacid])AQQAFIEYLIEGGPSSGAPPPS-NH2) | 51.9 nM | 0.177 nM | 0.0849 nM | 0.076 nM | 3.16 nM
3 | CC[C@H](C)[C@H](NC(=O)[C@H](Cc1ccccc1)NC(=O)[C@H](C)NC(=O)[C@H](CCC(N)=O)NC(=O)[C@H](CCC(N)=O)NC(=O)[C@H](C)NC(=O)[C@H](CCCCNC(=O)COCCOCCNC(=O)COCCOCCNC(=O)CC[C@H](NC(=O)CCCCCCCCCCCCCCCCCCC(=O)O)C(=O)O)NC(=O)[C@H](CCC(=O)O)NC(=O)[C@H](CC(=O)O)NC(=O)[C@H](CC(C)C)NC(=O)[C@](C)(CC(C)C)NC(=O)[C@@H](NC(=O)[C@H](CO)NC(=O)[C@H](Cc1ccc(O)cc1)NC(=O)[C@H](CC(=O)O)NC(=O)[C@H](CO)NC(=O)[C@@H](NC(=O)[C@](C)(Cc1ccccc1)NC(=O)[C@@H](NC(=O)CNC(=O)[C@H](CCC(=O)O)NC(=O)C(C)(C)NC(=O)[C@@H](N)Cc1ccc(O)cc1)[C@@H](C)O)[C@@H](C)O)[C@@H](C)CC)C(=O)N[C@@H](CCC(=O)O)C(=O)N[C@@H](Cc1ccc(O)cc1)C(=O)N[C@@H](CC(C)C)C(=O)N[C@H](C(=O)N[C@@H](CCC(=O)O)C(=O)NC(C)(C)C(=O)NCC(=O)N1CCC[C@H]1C(=O)N[C@@H](CO)C(=O)N[C@@H](CO)C(=O)NCC(=O)N[C@@H](C)C(=O)N1CCC[C@H]1C(=O)N1CCC[C@H]1C(=O)N1CCC[C@H]1C(=O)N[C@@H](CO)C(N)=O)[C@@H](C)CC [Example 122] (H-Y[Aib]EGT[αMeF]TSDYSI[αMeL]LDEK([AEEA-AEEA-γGlu-C20 diacid])AQQAFIEYLIE[Aib]GPSSGAPPPS-NH2) | 43.3 nM | 0.19 nM | 0.076 nM | 0.0923 nM | 3.36 nM
4 | CC[C@H](C)[C@H](NC(=O)[C@H](CC(C)C)NC(=O)[C@H](Cc1ccc(O)cc1)NC(=O)[C@H](CCC(=O)O)NC(=O)[C@@H](NC(=O)[C@H](Cc1ccccc1)NC(=O)[C@H](CCC(=O)O)NC(=O)C(C)(C)NC(=O)[C@H](CCC(N)=O)NC(=O)[C@H](C)NC(=O)[C@H](CCCCNC(=O)COCCOCCNC(=O)COCCOCCNC(=O)CC[C@H](NC(=O)CCCCCCCCCCCCCCCCCCC(=O)O)C(=O)O)NC(=O)[C@H](CCC(=O)O)NC(=O)[C@H](CC(=O)O)NC(=O)[C@H](CC(C)C)NC(=O)[C@](C)(CC(C)C)NC(=O)[C@@H](NC(=O)[C@H](CO)NC(=O)[C@H](Cc1ccc(O)cc1)NC(=O)[C@H](CC(=O)O)NC(=O)[C@H](CO)NC(=O)[C@@H](NC(=O)[C@](C)(Cc1ccccc1)NC(=O)[C@@H](NC(=O)CNC(=O)[C@H](CCC(=O)O)NC(=O)C(C)(C)NC(=O)[C@@H](N)Cc1ccc(O)cc1)[C@@H](C)O)[C@@H](C)O)[C@@H](C)CC)[C@@H](C)CC)C(=O)N[C@@H](CCC(=O)O)C(=O)NCC(=O)NCC(=O)N1CCC[C@H]1C(=O)N[C@@H](CO)C(=O)N[C@@H](CO)C(=O)NCC(N)=O [Example 124] (H-Y[Aib]EGT[αMeF]TSDYSI[αMeL]LDEK([AEEA-AEEA-γGlu-C20 diacid])AQ[Aib]EFIEYLIEGGPSSG-NH2) | 41.5 nM | 0.0424 nM | 0.0475 nM | 0.0762 nM | 4.87 nM
5 | CC[C@H](C)[C@H](NC(=O)[C@H](CC(C)C)NC(=O)[C@H](Cc1ccc(O)cc1)NC(=O)[C@H](CCC(=O)O)NC(=O)[C@@H](NC(=O)[C@H](Cc1ccccc1)NC(=O)[C@H](C)NC(=O)C(C)(C)NC(=O)[C@H](CCC(N)=O)NC(=O)[C@H](C)NC(=O)[C@H](CCCCNC(=O)COCCOCCNC(=O)COCCOCCNC(=O)CC[C@H](NC(=O)CC[C@H](NC(=O)CCCCCCCCCCCCCCCCCCC(=O)O)C(=O)O)C(=O)O)NC(=O)[C@H](CCCCN)NC(=O)[C@H](CC(=O)O)NC(=O)[C@H](CC(C)C)NC(=O)[C@](C)(CC(C)C)NC(=O)[C@@H](NC(=O)[C@H](CO)NC(=O)[C@H](Cc1ccc(O)cc1)NC(=O)[C@H](CC(=O)O)NC(=O)[C@H](CO)NC(=O)[C@@H](NC(=O)[C@](C)(Cc1ccccc1)NC(=O)[C@@H](NC(=O)CNC(=O)[C@H](CCC(=O)O)NC(=O)C(C)(C)NC(=O)[C@@H](N)Cc1ccc(O)cc1)[C@@H](C)O)[C@@H](C)O)[C@@H](C)CC)[C@@H](C)CC)C(=O)N[C@@H](CCC(=O)O)C(=O)NCC(=O)NCC(=O)N1CCC[C@H]1C(=O)N[C@@H](CO)C(=O)N[C@@H](CO)C(=O)NCC(=O)N[C@@H](C)C(=O)N1CCC[C@H]1C(=O)N1CCC[C@H]1C(=O)N1CCC[C@H]1C(=O)N[C@@H](CO)C(N)=O [Example 125] | 54.4 nM | 0.0624 nM | 0.0478 nM | 0.0381 nM | 3.19 nM
